From patent US11091509B2, “HPPK inhibitors useful as antibacterial agents” (priority 2016, dated 2021)
pKd: −log10 of the molar value. Like-named read-outs stand apart in the source and are kept apart here.

Target: HPPK (Escherichia coli, UniProt P26281)
Experiment: HPPK binding study by fluorometric titration (Kd)
Conditions: for affinity compared with previously known HPPK inhibitors: comparison in words
Description: Binding studies were carried out at room temperature. Protein (HPPK) and ligand stock solutions were made in 100 mM Tris-HCl, pH 8.3, and their concentrations were determined spectrophotometrically using the following extinction coefficients: 21600 M^−1 cm^−1 at 280 nm for HPPK and 7124 M^−1 cm^−1 at 380 nm for the tetrahydropteridine bisubstrate inhibitors of Formula I. A 3-mL dilute inhibitor solution in a fluorometric cuvette was titrated with the protein stock solution. Fluorescence was measured on a Horiba Jobin Yvon FluoroMax-4 fluorometer. The excitation wavelength and slit were 364-380 and 2-3 nm, respectively, and the emission wavelength and slit were 450-482 and 2-5 nm, respectively. […] For these HPPK preparations, a control experiment, in which a 3-mL buffer solution was titrated with the protein solution, was performed. The control data was subtracted from the titration data. The corrected titration data was then analyzed by nonlinear least-squares regression using the software Origin and the equation: […]
where Fobs is the observed fluorescence, εf and εb are the fluorescence coefficients of the ligand in the free and protein-bound states, respectively, Lt is the total concentration of the ligand, and Et is the total concentration of HPPK. Lt and Et were varied during the titration process according to the following expressions:
where E0 is the concentration of the HPPK stock solution, L0 is the initial concentration of the ligand, V0 is the initial volume of the titration, and ΔV is the total volume of the added HPPK solution.

[1] = room temperature, 100 mM Tris-HCl pH 8.3, inhibitor titrated with HPPK, fluorescence, nonlinear least-squares analysis, read-out: Kd

Sequence of HPPK (P26281 whole entry): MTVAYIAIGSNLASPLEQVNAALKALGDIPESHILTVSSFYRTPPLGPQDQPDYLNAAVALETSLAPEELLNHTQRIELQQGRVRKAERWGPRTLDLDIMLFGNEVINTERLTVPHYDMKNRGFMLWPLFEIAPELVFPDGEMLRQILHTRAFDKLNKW

| Compound | pKd | affinity compared with previously known HPPK inhibitors | pKd [1] |
| --- | --- | --- | --- |
| CC1(C)Nc2nc(N)[nH]c(=O)c2N=C1C(=O)NCCN(CCSC[C@H]1O[C@@H](n2cnc3c(N)ncnc32)[C@H](O)[C@@H]1O)CP(=O)(O)O [Compound 118, (((2-(2-amino-7,7-dimethyl-4-oxo-3,4,7,8-tetrahydropteridine-6-carboxamido)ethyl)(2-((((2S,3S,4R,5R)-5-(6-amino-9H-purin-9-yl)-3,4-dihydroxytetrahydrofuran-2-yl)methyl)thio)ethyl)amino)methyl)phosphonic acid] | 6.40 | significantly higher |  |
| CC1(C)Nc2nc(N)[nH]c(=O)c2N=C1C(=O)NCC(=O)N(CC(=O)NC[C@H]1O[C@@H](n2cnc3c(N)ncnc32)C(O)C1O)CP(=O)(O)O (stereo partly shown) [Compound 114] | 5.74 | significantly higher |  |
| CC1(C)Nc2nc(N)[nH]c(=O)c2N=C1C(=O)NCCN(CC(=O)NC[C@H]1O[C@@H](n2cnc3c(N)ncnc32)C(O)C1O)CP(=O)(O)O (stereo partly shown) [Compound 115] | 5.54 |  |  |
| CC1(C)Nc2nc(N)[nH]c(=O)c2N=C1C(=O)NC1CCN(CCSC[C@H]2O[C@@H](n3cnc4c(N)ncnc43)[C@H](O)[C@@H]2O)CC1 [Compound 101, 2-amino-N-(1-(2-((((2S,3S,4R,5R)-5-(6-amino-9H-purin-9-yl)-3,4-dihydroxytetrahydrofuran-2-yl)methyl)thio)ethyl)piperidin-4-yl)-7,7-dimethyl-4-oxo-3,4,7,8-tetrahydropteridine-6-carboxamide] |  |  | 4.94 |
| CC1(C)Nc2nc(N)[nH]c(=O)c2N=C1C(=O)NCCN1CC[C@@H](SC[C@H]2O[C@@H](n3cnc4c(N)ncnc43)[C@H](O)[C@@H]2O)C[C@@H]1C(=O)O [Compound 120, (2R,4R)-1-(2-(2-amino-7,7-dimethyl-4-oxo-3,4,7,8-tetrahydropteridine-6-carboxamido)ethyl)-4-((((2S,3S,4R,5R)-5-(6-amino-9H-purin-9-yl)-3,4-dihydroxytetrahydrofuran-2-yl)methyl)thio)piperidine-2-carboxylic acid] |  |  | 6.52 |
